Assay results as given in patent US7034056B2, “Aryl and biaryl compounds having MCH modulatory activity” (Pharmacopeia Drug Discovery, inc., priority 2001, dated 2006).
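Wherever Activity (Ki range) is given: A 0.4–50 nM B 51–500 nM C 501–2500 nM.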

What follows are compounds tested against T1, hMCHR (MCH receptor) (Homo sapiens, UniProt Q99705) (assay: MCH Assay PCOP Protocol ([125I]-MCH SPA binding to hMCHR-CHO membranes)). Details: [125I]-MCH 0.5 nM, hMCHR-CHO membranes; read-out: Activity (ranges of Ki values).
T1 construct: (or internally produced); host or cells: CHO (Chinese hamster ovary) cells, membrane preparation
T1 sequence (Q99705 whole entry): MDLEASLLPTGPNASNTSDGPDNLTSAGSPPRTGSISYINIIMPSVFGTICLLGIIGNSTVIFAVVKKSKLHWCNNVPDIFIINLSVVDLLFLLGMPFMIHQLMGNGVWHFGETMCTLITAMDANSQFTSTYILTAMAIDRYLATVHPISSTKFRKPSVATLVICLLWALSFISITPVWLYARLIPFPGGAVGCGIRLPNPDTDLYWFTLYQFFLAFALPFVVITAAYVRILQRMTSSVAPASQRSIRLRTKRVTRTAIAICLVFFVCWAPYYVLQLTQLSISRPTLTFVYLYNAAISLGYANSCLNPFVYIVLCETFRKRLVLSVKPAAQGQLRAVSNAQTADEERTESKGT
Outline: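 SPA binding with 10 μg hMCHR-CHO membranes and WGA-SPA beads in 25 mM HEPES pH 7.4, 10 mM NaCl, 10 mM MgCl2, 5 mM MnCl2, 0.1% BSA.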
O=C(NCC(CCN1CCC(NC(=O)c2ccno2)C1)c1ccc(Cl)c(Cl)c1)Nc1cc(Cl)cc(Cl)c1 (centres unmarked) [Example 209] showed a Ki of 501 to 2500 nM. Compound O=C(NCC(CCNC1CCCC1)c1ccc(-c2cc[n+]([O-])cc2)cc1)Nc1cc(Cl)cc(Cl)c1 (centres unmarked) [Example 37] has a Ki of 0.4 to 50 nM. With CN(C)CCC(OC(=O)Nc1cc(Cl)cc(Cl)c1)c1ccc(-c2ccncc2)cc1 (centres unmarked) [Example 33, (3,5-Dichloro-phenyl)-carbamic acid 3-dimethylamino-1-(4-pyridin-4-yl-phenyl)-propyl ester] the Ki was 501 to 2500 nM. With CNCCC(CNC(=O)Nc1ccc(F)cc1)c1ccc(-c2cccc(C#N)c2)cc1 (centres unmarked) [Example 60] the Ki was 0.4 to 50 nM. In the case of COc1ccc(-c2cccc(C(CCNCCCN(C)C)CNC(=O)Nc3cc(Cl)cc(Cl)c3)c2)cc1 (centres unmarked) [Example 154], the Ki is reported as 51 to 500 nM. Compound Cc1ccc(C(CCN2CCC(NC(=O)C3CCC3)CC2)CNC(=O)Nc2cc(Cl)cc(Cl)c2)cc1 (centres unmarked) [Example 187] has a Ki of 51 to 500 nM. Compound CCNC(=O)N1CCC(NCCC(CNC(=O)Nc2cc(Cl)cc(Cl)c2)c2ccc(Cl)c(Cl)c2)C1 (centres unmarked) [Example 182] has a Ki of 51 to 500 nM. Compound CNCCC(CNC(=O)c1ccc(F)c(F)c1)c1ccc(-c2cccc(C#N)c2)cc1 (racemic) [Example 24, (R,S)-N-[2-(3′-Cyano-biphenyl-4-yl)-4-methylamino-butyl]-3,4-difluoro-benzamide] has a Ki of 501 to 2500 nM. With COCC(=O)NC1CCN(CCC(CNC(=O)Nc2cc(Cl)cc(Cl)c2)c2ccc(Cl)cc2)CC1 (centres unmarked) [Example 192] the Ki was 51 to 500 nM. CN(C)CCCNCCC(CNC(=O)Nc1cc(Cl)cc(Cl)c1)c1cccc(-c2ccc(F)cc2)c1 (centres unmarked) [Example 165] showed a Ki of 501 to 2500 nM. Compound O=C(NCC(CCNC1CCCC1)c1cccc(-c2ccc3c(c2)OCO3)c1)Nc1cc(Cl)cc(Cl)c1 (centres unmarked) [Example 147] has a Ki of 51 to 500 nM. Compound COc1cc(CNCCC(CNC(=O)Nc2cc(Cl)cc(Cl)c2)c2ccc(Cl)c(Cl)c2)cc(OC)c1OC (centres unmarked) [Example 129] has a Ki of 51 to 500 nM. Work on CN(C)CCCNCCC(CNC(=O)Nc1cc(Cl)cc(Cl)c1)c1cccc(-c2ccc(Cl)cc2)c1 (centres unmarked) [Example 151] yielded a Ki of 51 to 500 nM. Work on COc1cc(CNCCC(CNC(=O)Nc2ccc(F)c([N+](=O)[O-])c2)c2ccc(Cl)c(Cl)c2)cc(OC)c1OC (centres unmarked) [Example 125] yielded a Ki of 51 to 500 nM. O=S(=O)(NCC(CCNC1CCCC1)c1ccc(Cl)c(Cl)c1)c1ccc(Cl)c(Cl)c1 (racemic) [Example 21, (R,S)-3,4-Dichloro-N-[4-cyclopentylamino-2-(3,4-dichloro-phenyl)-butyl]-benzenesulfonamide] was tested, and the Ki was 501 to 2500 nM. Compound O=C(NCC(CCNC1CCCC1)c1ccc(Cl)c(Cl)c1)Nc1cccc(Br)c1 (centres unmarked) [Example 133] has a Ki of 51 to 500 nM. Compound O=C(NCC(CCNC1CCCC1)c1cccc(-c2ccc(F)cc2)c1)Nc1cc(Cl)cc(Cl)c1 (centres unmarked) [Example 155] has a Ki of 51 to 500 nM. In the case of Cc1ccc(C(CCNC2CCCC2)CNC(=O)Nc2cc(Cl)cc(Cl)c2)cc1C (centres unmarked) [Example 103], the Ki is reported as 51 to 500 nM. Compound CN(CCC(C(=O)NCc1cc(C(F)(F)F)cc(C(F)(F)F)c1)c1ccc(Cl)c(Cl)c1)C1CCCCC1 (racemic) [Example 30, (R,S)-N-(3,5-Bistrifluoromethyl-benzyl)-4-(cyclohexyl-methyl-amino)-2-(3,4-dichloro-phenyl)-butyramide] has a Ki of 501 to 2500 nM. Work on COc1cc(-c2cccc(C(CCNC3CCCC3)CNC(=O)Nc3cc(Cl)cc(Cl)c3)c2)cc(OC)c1OC (centres unmarked) [Example 153] yielded a Ki of 51 to 500 nM. For CN(C)CCCNCCC(CNC(=O)Nc1cc(Cl)cc(Cl)c1)c1cccc(-c2cccnc2)c1 (centres unmarked) [Example 172], the Ki was 501 to 2500 nM. O=C(NCC(CCNC1CCCC1)c1ccc(Cl)c(Cl)c1)c1cc(C(F)(F)F)cc(C(F)(F)F)c1 (racemic) [Example 20, (R,S)-N-[4-Cyclopentylamino-2-(3,4-dichloro-phenyl)-butyl]-3,5-bis-trifluoromethyl-benzamide] showed a Ki of 501 to 2500 nM. O=C(NCC(CCNC1CCCC1)c1ccc(Cl)c(Cl)c1)Nc1ccc(F)c([N+](=O)[O-])c1 (centres unmarked) [Example 141] showed a Ki of 501 to 2500 nM. In the case of CN(C)CCCNCCC(CNC(=O)Nc1cc(Cl)cc(Cl)c1)c1ccc(-c2ccc(OC(F)(F)F)cc2)cc1 (centres unmarked) [Example 101], the Ki is reported as 51 to 500 nM. O=C(NCC(CCN1CCC(NC(=O)c2cccs2)C1)c1ccc(Cl)c(Cl)c1)Nc1cc(Cl)cc(Cl)c1 (centres unmarked) [Example 190] was tested, and the Ki was 51 to 500 nM. Work on N#Cc1cccc(-c2ccc(C(CCNC3CC3)CNC(=O)Nc3cccc(F)c3)cc2)c1 (centres unmarked) [Example 54] yielded a Ki of 0.4 to 50 nM. Compound N#Cc1cccc(-c2ccc(C(CCNC3CC3)CNC(=O)Nc3ccc(Cl)cc3)cc2)c1 (centres unmarked) [Example 65] has a Ki of 0.4 to 50 nM. N#Cc1cccc(-c2cccc(C(CCNC3CCCC3)CNC(=O)Nc3cc(Cl)cc(Cl)c3)c2)c1 (centres unmarked) [Example 149] gave a Ki of 51 to 500 nM. With CCNC(=O)NC1CCN(CCC(CNC(=O)Nc2cc(Cl)cc(Cl)c2)c2ccc(-c3cccc(C#N)c3)cc2)C1 [Example 27, (R,S)-1-1-{3-(3′-Cyano-biphenyl-4-yl)-4-[3 (3,5-dichloro-phenyl)-ureido]-butyl}-pyrrolidin-3-yl)-3-ethyl-urea] the Ki was 501 to 2500 nM. O=C(NCC(CCNC1CCCC1)c1ccc2c(c1)OCO2)Nc1ccc(F)c([N+](=O)[O-])c1 (centres unmarked) [Example 121] was tested, and the Ki was 501 to 2500 nM. For N#Cc1cccc(-c2ccc(C(CCNC3CCCC3)CNC(=O)c3cc(Cl)cc(Cl)c3)cc2)c1 (centres unmarked) [Example 82], the Ki was 51 to 500 nM.

Same assay, conditions: [125I]-MCH SPA binding, hMCHR-CHO membranes; Ki class ranges; read-out: Activity (range of Ki)
With Cc1ccc(C(=O)NCC(CCN2CCCCC2)c2ccc(Cl)c(Cl)c2)cc1 (centres unmarked) [Example 450] the Ki was 501 to 2500 nM. With O=C(NCC(CCN1CCCC1CN1CCCC1)c1ccc(Cl)c(Cl)c1)c1cc(C(F)(F)F)cc(C(F)(F)F)c1 (centres unmarked) [Example 418] the Ki was 501 to 2500 nM. Work on COCC1CCCN1CCC(CNC(=O)Nc1cc(C(F)(F)F)cc(C(F)(F)F)c1)c1ccc(Cl)c(Cl)c1 (centres unmarked) [Example 441] yielded a Ki of 501 to 2500 nM. With CCCN(CC)CCC(CNC(=O)Nc1cc(C(F)(F)F)cc(C(F)(F)F)c1)c1ccc(Cl)c(Cl)c1 (centres unmarked) [Example 424] the Ki was 501 to 2500 nM. Work on O=C(NCC(CCN1CCCCC1)c1ccc(Cl)c(Cl)c1)c1cccc(Cl)c1 (centres unmarked) [Example 447] yielded a Ki of 501 to 2500 nM. Compound Cc1cc(C)cc(C(=O)NCC(CCN2CCCCC2)c2ccc(Cl)c(Cl)c2)c1 (centres unmarked) [Example 456] has a Ki of 501 to 2500 nM.

Same assay, conditions: [125I]-MCH binding to hMCHR-CHO membranes; class symbols for ranges of Ki; read-out: Activity (Ki range)
With O=S(=O)(NCC(CCN1CCC(N2CCCCC2)CC1)c1ccc(Cl)c(Cl)c1)c1ccc(Cl)c(Cl)c1 (centres unmarked) [Example 372] the Ki was 501 to 2500 nM. For CN(C)CCCNCCC(CNC(=O)Nc1cc(Cl)cc(Cl)c1)c1ccc(-c2cccs2)cc1 (centres unmarked) [Example 231], the Ki was 51 to 500 nM. With O=C(NCC(CCN1CCCC1)c1ccc(Cl)c(Cl)c1)Nc1ccc(Cl)c(Cl)c1 (centres unmarked) [Example 287] the Ki was 51 to 500 nM. Cc1cc(CNC(=O)C(CCN2CCCC(C)C2)c2ccc(Cl)c(Cl)c2)cc(C(F)(F)F)c1 (centres unmarked) [Example 391] was tested, and the Ki was 501 to 2500 nM. O=C(NCc1cc(C(F)(F)F)cc(C(F)(F)F)c1)C(CCNCCc1c[nH]c2cc(F)ccc12)c1ccc(Cl)c(Cl)c1 (centres unmarked) [Example 381] was tested, and the Ki was 501 to 2500 nM. O=C(NCC(CCN1CCNCC1)c1ccc(Cl)c(Cl)c1)Nc1cccc(C(F)(F)F)c1 (centres unmarked) [Example 309] gave a Ki of 501 to 2500 nM. With O=C(NCc1ccc(F)c(F)c1)NCC(CCN1CCC(N2CCCCC2)CC1)c1ccc(Cl)c(Cl)c1 (centres unmarked) [Example 258] the Ki was 51 to 500 nM. Compound O=C(NCc1cc(C(F)(F)F)cc(C(F)(F)F)c1)C(CCNCCc1c[nH]c2ccccc12)c1ccc(Cl)c(Cl)c1 (centres unmarked) [Example 385] has a Ki of 501 to 2500 nM. Work on O=C(NCc1cc(C(F)(F)F)cc(C(F)(F)F)c1)C(CCN1CCCC(CO)C1)c1ccc(Cl)c(Cl)c1 (centres unmarked) [Example 387] yielded a Ki of 501 to 2500 nM. In the case of CCCN(CC)CCC(CNC(=O)Nc1ccc(Cl)c(Cl)c1)c1ccc(Cl)c(Cl)c1 (centres unmarked) [Example 289], the Ki is reported as 51 to 500 nM. CN(C)CCCNCCC(CNC(=O)Nc1cc(C(F)(F)F)cc(C(F)(F)F)c1)c1cccc(Cl)c1 (centres unmarked) [Example 344] showed a Ki of 501 to 2500 nM. Work on COc1cc(NC(=O)NCC(CCN2CCCCC2)c2ccc(C)cc2)cc(OC)c1 (centres unmarked) [Example 354] yielded a Ki of 501 to 2500 nM. With CN(C)CCCNCCC(CNC(=O)Nc1cc(Cl)cc(Cl)c1)c1ccc(-c2cccc([N+](=O)[O-])c2)cc1 (centres unmarked) [Example 220] the Ki was 0.4 to 50 nM. With O=C(NCC(CCNC1CCC1)c1ccc(Cl)c(Cl)c1)Nc1ccc(F)c(Cl)c1 (centres unmarked) [Example 263] the Ki was 501 to 2500 nM. For O=C(NCc1cc(C(F)(F)F)cc(C(F)(F)F)c1)C(CCN1CCC(O)CC1)c1ccc(Cl)c(Cl)c1 (centres unmarked) [Example 389], the Ki was 501 to 2500 nM. Cc1ccc(C(CCNC2CCCC2)CNC(=O)Nc2cc(Cl)cc(Cl)c2)cc1 (centres unmarked) [Example 271] showed a Ki of 51 to 500 nM. COc1cc(CNCCC(CNC(=O)Nc2ccc(Cl)c(Cl)c2)c2ccc(Cl)c(Cl)c2)cc(OC)c1OC (centres unmarked) [Example 259] showed a Ki of 51 to 500 nM. CN(C)C1CCN(CCC(CNC(=O)Nc2cccc(C(F)(F)F)c2)c2ccc(Cl)c(Cl)c2)C1 (centres unmarked) [Example 306] showed a Ki of 501 to 2500 nM. Cc1ccc(C(CCN2CCCCC2)CNC(=O)Nc2cc(Cl)cc(Cl)c2)cc1 (centres unmarked) [Example 350] was tested, and the Ki was 51 to 500 nM. Compound O=C(NCC(CCN1CCCC1)c1ccc(Cl)cc1)Nc1cc(C(F)(F)F)cc(C(F)(F)F)c1 (centres unmarked) [Example 329] has a Ki of 51 to 500 nM. Compound CN(CCC(CNC(=O)c1cc(C(F)(F)F)cc(C(F)(F)F)c1)c1ccc(Cl)c(Cl)c1)CC(=O)O (centres unmarked) [Example 393] has a Ki of 501 to 2500 nM. For Cc1ccc(C(CCN2CCCCC2)CNC(=O)Nc2cc(C)cc(C)c2)cc1 (centres unmarked) [Example 355], the Ki was 501 to 2500 nM. With CN(C)CCCNCCC(CNC(=O)Nc1cc(Cl)cc(Cl)c1)c1ccc(-c2ccc(F)c(Cl)c2)cc1 (centres unmarked) [Example 224] the Ki was 0.4 to 50 nM. O=C(NCC(CCNC1CCCC1)c1ccc(-c2ccc3c(c2)OCO3)cc1)Nc1cc(Cl)cc(Cl)c1 (centres unmarked) [Example 227] was tested, and the Ki was 51 to 500 nM. Cn1cnc(CCNCCC(CNC(=O)Nc2cc(Cl)cc(Cl)c2)c2ccc(Cl)c(Cl)c2)c1 (centres unmarked) [Example 297] showed a Ki of 501 to 2500 nM. In the case of O=C(NCC(CCNCCc1c[nH]c2cc(F)ccc12)c1ccc(Cl)c(Cl)c1)c1cc(C(F)(F)F)cc(C(F)(F)F)c1 (centres unmarked) [Example 415], the Ki is reported as 501 to 2500 nM. Compound O=C(NCC(CCNC1CCC1)c1ccc(Cl)c(Cl)c1)Nc1ccc(F)c(F)c1 (centres unmarked) [Example 265] has a Ki of 501 to 2500 nM. For O=C(NCC(CCN1CCC(N2CCCCC2)CC1)c1ccc(Cl)c(Cl)c1)Nc1ccc(F)cc1 (centres unmarked) [Example 374], the Ki was 501 to 2500 nM.
